Literature values in patent US8241397B2, “Adsorptive gas sampler using ionic nano-droplets” (Honeywell International Inc., priority 2008, dated 2012).

Conditions: water uptake

Compared with CCCCn1cc[n+](C)c1.O=S(=O)([N-]S(=O)(=O)C(F)(F)F)C(F)(F)F [[C4MIM][TF2N], [C4MIM] bis(trifluoromethylsulfonyl) imide], CCCCCCn1cc[n+](C)c1.O=S(=O)([N-]S(=O)(=O)C(F)(F)F)C(F)(F)F [[C6MIM][TF2N]] is lower in “Solubility of solvent H2O in ionic liquid (% w/w)” value: 1.17% w/w for the first, 0.88% w/w for the second.

For CCCCCCCCn1cc[n+](C)c1.O=S(=O)([N-]S(=O)(=O)C(F)(F)F)C(F)(F)F [[C8MIM][TF2N]], the “Solubility of solvent H2O in ionic liquid (% w/w)” value is listed as 0.74% w/w.
